# Measurements from paper PMC6943751 (The Journal of infectious diseases, 2014).
# Target: Neuraminidase (NA) of A/Bethesda/956/2006, NA-R292K (Influenza A virus, UniProt F1KL32, R292K)
# Format: biochemical, influenza A(H3N2) virus
compound,measurement,setting,value
"CCC(CC)[C@H](NC(C)=O)[C@@H]1[C@H](O)[C@@H](C(=O)O)C[C@H]1N=C(N)N [Peramivir, peramivir]",Fold-Difference of IC50 compared with the IC50 of WT virus,,16.27 ± 0.89 (71) fold
same,IC50,"read-out: IC50, nM ± SD",16.3 nM
